Laboratory results: patent US11730712B2, “Functionalized long-chain hydrocarbon mono- and di-carboxylic acids and derivatives thereof, and their use for the prevention or treatment of disease” (ESPERVITA THERAPEUTICS, INC., priority 2021, dated 2023)

System: liver fibrosis gene panel (770 genes)
Experiment: Nanostring nCounter Fibrosis panel gene expression in liver of DEN-injected mice
Assay type: in vivo, mouse
Details: vs vehicle
Method: Nanostring Analysis. RNA was extracted from paired liver and tumor tissue from vehicle, Compound I-1 (100 mg/kg) and Compound I-32 (100 mg/kg) treated mice using an RNeasy kit (Qiagen, Calif., USA) as per manufacturer's protocol. All RNA samples passed the BioAnalyzer quality control test. The expression of target genes in liver and tumor were analyzed using the nCounter Fibrosis and Cancer Panel (NanoString Technologies, Inc., WA, USA), respectively according to manufacturer's protocol at the McMaster Genomics Facility. Technical and biological normalization against global geometric mean was performed in nSolver 4.0 software (NanoString Technologies). Technical normalization was performed in the nSolver software (version 4.0.70) by normalizing sample target raw counts to the geometric mean of positive control spike-ins. Biological normalization was performed by normalizing sample target raw counts to the geometric mean of selected housekeeping genes (Ppia, Nubp1, Nol7, Armh3, Rplp0, Cnot10, Pgk1, and Acad9). Pathway scores were calculated as the first principal component of the normalized expression values for all genes in each pathway and samples were compiled according to experimental groups to determine average pathway scores. Statistical significance was calculated between experimental groups using multiple t-tests and p-values were corrected for multiple comparisons using Benjamin-Hochberg false discovery rate.
Molecular analysis. To identify the pathways modulated in the liver and tumor tissue, nanostring analysis of fibrosis and cancer, pathways, respectively were completed in an n=8 mice treated with vehicle or Compound I-32 or Compound I-1 at 100 mg/kg.

CC(C)(CCCCc1ccc(CCCCC(C)(C)C(=O)O)cc1)C(=O)O [Compound I-1, 6-[4-(5-carboxy-5-methylhexyl)-phenyl]-2,2-dimethylhexanoic acid]
Tin1 Log2FC (NM_011602, 100 mg/kg): −0.237 | Txn1 Log2FC (NM_011660, 100 mg/kg): 0.281 | Vegfb Log2FC (NM_011697, 100 mg/kg): 0.603 | Vim Log2FC (NM_011701, 100 mg/kg): −0.309 | Adh4 Log2FC (NM_011996, 100 mg/kg): −0.808 | Apoa2 Log2FC (NM_013474, 100 mg/kg): 0.172 | Apoh Log2FC (NM_013475, 100 mg/kg): −0.225 | C9 Log2FC (NM_013485, 100 mg/kg): −1.55 | Cpt1a Log2FC (NM_013495, 100 mg/kg): −0.302 | Creb3 Log2FC (NM_013497, 100 mg/kg): −0.38 | P3h3 Log2FC (NM_013534, 100 mg/kg): −0.96 | Ptpn6 Log2FC (NM_013545, 100 mg/kg): 0.326 | Slc25a10 Log2FC (NM_013770, 100 mg/kg): 0.508 | H2-M3 Log2FC (NM_013819, 100 mg/kg): −0.69 | Xbp1 Log2FC (NM_013842, 100 mg/kg): −0.397 | Col5a1 Log2FC (NM_015734, 100 mg/kg): −0.513 | Isg15 Log2FC (NM_015783, 100 mg/kg): −0.727 | C6 Log2FC (NM_016704, 100 mg/kg): −0.969 | Smad3 Log2FC (NM_016769, 100 mg/kg): −0.317 | Irf3 Log2FC (NM_016849, 100 mg/kg): −0.154 | Ywhag Log2FC (NM_018871, 100 mg/kg): 0.305 | Fbp1 Log2FC (NM_019395, 100 mg/kg): −0.878 | Ndufa1 Log2FC (NM_019443, 100 mg/kg): 0.226 | Cpb2 Log2FC (NM_019775, 100 mg/kg): −0.58 | Uba52 Log2FC (NM_019883, 100 mg/kg): 0.484 | Ube2d2a Log2FC (NM_019912, 100 mg/kg): −0.237 | Aldh9a1 Log2FC (NM_019993, 100 mg/kg): 0.545 | Angpti4 Log2FC (NM_020581, 100 mg/kg): 0.707 | Isg20 Log2FC (NM_020583, 100 mg/kg): −0.48 | Abcb11 Log2FC (NM_021022, 100 mg/kg): −0.442 | Tlr4 Log2FC (NM_021297, 100 mg/kg): −0.608 | Mlxipl Log2FC (NM_021455, 100 mg/kg): 0.439 | Cxcl12 Log2FC (NM_021704, 100 mg/kg): −0.597 | Apoc3 Log2FC (NM_023114, 100 mg/kg): −0.657 | Kng1 Log2FC (NM_023125, 100 mg/kg): −0.396 | Cxcl16 Log2FC (NM_023158, 100 mg/kg): −0.374 | Em1 Log2FC (NM_023913, 100 mg/kg): −0.533 | Sec61b Log2FC (NM_024171, 100 mg/kg): −0.355 | Cyp27a1 Log2FC (NM_024264, 100 mg/kg): −0.594 | Fabp4 Log2FC (NM_024406, 100 mg/kg): 1.01 | Spop Log2FC (NM_025287, 100 mg/kg): 0.186 | Ndufb5 Log2FC (NM_025316, 100 mg/kg): 0.415 | Ssr2 Log2FC (NM_025448, 100 mg/kg): −0.177 | Psenen Log2FC (NM_025498, 100 mg/kg): −0.126 | Ndufc1 Log2FC (NM_025523, 100 mg/kg): 0.438 | Cox6b1 Log2FC (NM_025628, 100 mg/kg): 0.532 | Uqcrh Log2FC (NM_025641, 100 mg/kg): 0.311 | Uqcrfs1 Log2FC (NM_025710, 100 mg/kg): 0.255 | Map1lc3a Log2FC (NM_025735, 100 mg/kg): 0.807 | Ndufb8 Log2FC (NM_026061, 100 mg/kg): 0.327 | Erp29 Log2FC (NM_026129, 100 mg/kg): −0.217 | Uqcrb Log2FC (NM_026219, 100 mg/kg): 0.476 | Hikeshi Log2FC (NM_026304, 100 mg/kg): 0.233 | Sugt1 Log2FC (NM_026474, 100 mg/kg): 0.185 | Atg101 Log2FC (NM_026566, 100 mg/kg): −0.436 | Ndufs3 Log2FC (NM_026688, 100 mg/kg): 0.26 | Anapc10 Log2FC (NM_026904, 100 mg/kg): −0.291 | Ifi35 Log2FC (NM_027320, 100 mg/kg): −0.465 | Pgm2 Log2FC (NM_028132, 100 mg/kg): 0.361 | Phykpl Log2FC (NM_028398, 100 mg/kg): −0.165 | Pik3cb Log2FC (NM_029094, 100 mg/kg): −0.421 | Tlr1 Log2FC (NM_030682, 100 mg/kg): −1.09 | Hcar2 Log2FC (NM_030701, 100 mg/kg): 1.71 | Cpn1 Log2FC (NM_030703, 100 mg/kg): 0.371 | Slc2a2 Log2FC (NM_031197, 100 mg/kg): −0.543 | Lamtor2 Log2FC (NM_031248, 100 mg/kg): 0.195 | Loxl2 Log2FC (NM_033325, 100 mg/kg): −0.689 | Derl2 Log2FC (NM_033562, 100 mg/kg): −0.334 | Ube2n Log2FC (NM_080560, 100 mg/kg): −0.15 | Elovl6 Log2FC (NM_130450, 100 mg/kg): 0.819 | Acaca Log2FC (NM_133360, 100 mg/kg): 0.655 | Fgg Log2FC (NM_133862, 100 mg/kg): −0.517 | Acacb Log2FC (NM_133904, 100 mg/kg): 0.612 | Il1rap Log2FC (NM_134103, 100 mg/kg): −0.815 | Ptpa Log2FC (NM_138748, 100 mg/kg): 0.372 | Mylk Log2FC (NM_139300, 100 mg/kg): −0.458 | Fcgr4 Log2FC (NM_144559, 100 mg/kg): −0.541 | Aldob Log2FC (NM_144903, 100 mg/kg): −0.665 | C1s1 Log2FC (NM_144938, 100 mg/kg): −0.902 | Txndc5 Log2FC (NM_145367, 100 mg/kg): −0.284 | Jak1 Log2FC (NM_146145, 100 mg/kg): −0.203 | C8a Log2FC (NM_146148, 100 mg/kg): −1.21 | Pkhd1 Log2FC (NM_153179, 100 mg/kg): −0.99 | Nckap1l Log2FC (NM_153505, 100 mg/kg): −0.473 | Mbtps2 Log2FC (NM_172307, 100 mg/kg): 0.309 | Cyp4a12a Log2FC (NM_177406, 100 mg/kg): 1.65 | Acaa2 Log2FC (NM_177470, 100 mg/kg): 0.464 | Ep300 Log2FC (NM_177821, 100 mg/kg): −0.258 | Jmjd4 Log2FC (NM_178659, 100 mg/kg): −0.385 | Nceh1 Log2FC (NM_178772, 100 mg/kg): 0.592 | Hadha Log2FC (NM_178878, 100 mg/kg): 1.12 | Mfap3 Log2FC (NM_180599, 100 mg/kg): −0.377 | Fgb Log2FC (NM_181849, 100 mg/kg): −0.336 | Bst2 Log2FC (NM_198095, 100 mg/kg): 0.596 | H2-Ab1 Log2FC (NM_207105, 100 mg/kg): −0.716 | Acsl4 Log2FC (NM_207625, 100 mg/kg): 0.645 | Cflar Log2FC (NM_207653, 100 mg/kg): −0.214 | Egfr Log2FC (NM_207655, 100 mg/kg): −1.12 | Mapk9 Log2FC (NM_207692, 100 mg/kg): 0.185 | Stat3 Log2FC (NM_213659, 100 mg/kg): −0.646 | H2-K1 Log2FC (NM_001001892, 100 mg/kg): −0.284 | Kdm2a Log2FC (NM_001001984, 100 mg/kg): −0.312 | Depdc5 Log2FC (NM_001025426, 100 mg/kg): −0.27 | Cfhr2 Log2FC (NM_001025575, 100 mg/kg): −0.626 | Ndufs5 Log2FC (NM_001030274, 100 mg/kg): 0.414 | Itga1 Log2FC (NM_001033228, 100 mg/kg): −0.394 | Ndufb6 Log2FC (NM_001033305, 100 mg/kg): 0.243 | Xaf1 Log2FC (NM_001037713, 100 mg/kg): −0.742 | Banf1 Log2FC (NM_001038231, 100 mg/kg): 0.319 | Smurf1 Log2FC (NM_001038627, 100 mg/kg): −0.697 | Nrp2 Log2FC (NM_001077403, 100 mg/kg): 0.665 | Ptafr Log2FC (NM_001081211, 100 mg/kg): −0.518 | Brpf3 Log2FC (NM_001081315, 100 mg/kg): 0.434 | Rapgef2 Log2FC (NM_001099624, 100 mg/kg): −0.262 | Kng2 Log2FC (NM_001102410, 100 mg/kg): −0.305 | Aqp8 Log2FC (NM_001109045, 100 mg/kg): −0.993 | Igf1 Log2FC (NM_001111274, 100 mg/kg): −0.496 | Lrrc32 Log2FC (NM_001113379, 100 mg/kg): −0.438 | Stat5b Log2FC (NM_001113563, 100 mg/kg): −0.322 | Il1r1 Log2FC (NM_001123382, 100 mg/kg): −0.998 | Aldh7a1 Log2FC (NM_001127338, 100 mg/kg): −0.252 | Chuk Log2FC (NM_001162410, 100 mg/kg): 0.202 | Mmm1 Log2FC (NM_001163507, 100 mg/kg): −0.231 | Cyfip1 Log2FC (NM_001164661, 100 mg/kg): −0.264 | Akt1 Log2FC (NM_001165894, 100 mg/kg): −0.226 | Cd84 Log2FC (NM_001252472, 100 mg/kg): −0.439 | Apoc2 Log2FC (NM_001277944, 100 mg/kg): −1.26 | Cd68 Log2FC (NM_001291058, 100 mg/kg): −0.613 | Col6a3 Log2FC (XM_897036, 100 mg/kg): −1.06
